# Source: patent US4148896A, “Antidepressant combination” (E. I. Du Pont de Nemours and Company, priority 1978, dated 1979)
# Where two headings read alike, the source gives them in different places.
# Assays:
# [1] = in vivo; details: mouse, po
# [2] = tested on: tryptamine-induced stereotypies and hind limb paralysis; assay: Tryptamine potentiation test; type: in vivo, mice; details: for ED50: Mus musculus, po
# Protocol: […] […] (60 Mg/kg of tryptamine alone causes this syndrome but it lasts for less than a minute, usually only a few seconds.) The data were analyzed quantally and ED50's calculated.
smiles,measurement,setting,value
"CCc1c(C)[nH]c2c1C(=O)C(CN1CCOCC1)CC2 (stereo not shown) [Molindone, 3-ethyl-6,7-dihydro-2-methyl-5-(morpholinomethyl)indol-4-(5H)-one]",LD50 at 24 h,[1],440 mg/kg
same,HEAD TWITCH (mice responding),"[2]; 2.5 mg/kg p.o., 4 Hrs., N=10",0
same,HIND LIMB PARALYSIS (mice responding),"[2]; 2.5 mg/kg p.o., 4 Hrs., N=10",0
same,"ED50, HIND LIMB PARALYSIS",[2]; 4 Hrs.,8.6 mg/kg p.o.
same,HEAD TWITCH (mice responding),"[2]; 5. mg/kg p.o., 4 Hrs., N=10",0
same,HIND LIMB PARALYSIS (mice responding),"[2]; 5. mg/kg p.o., 4 Hrs., N=10",1
same,"ED50, HEAD TWITCH",[2]; 6 Hrs.,15 mg/kg p.o.
same,HEAD TWITCH (mice responding),"[2]; 10. mg/kg p.o., 1 Hr., N=10",1
same,HIND LIMB PARALYSIS (mice responding),"[2]; 10. mg/kg p.o., 1 Hr., N=10",3
same,HEAD TWITCH (mice responding),"[2]; 10. mg/kg p.o., 2 Hrs., N=10",2
same,HIND LIMB PARALYSIS (mice responding),"[2]; 10. mg/kg p.o., 2 Hrs., N=10",8
same,HEAD TWITCH (mice responding),"[2]; 10. mg/kg p.o., 4 Hrs., N=20",1
same,HIND LIMB PARALYSIS (mice responding),"[2]; 10. mg/kg p.o., 4 Hrs., N=20",13
same,HEAD TWITCH (mice responding),"[2]; 10. mg/kg p.o., 6 Hrs., N=10",0
same,HIND LIMB PARALYSIS (mice responding),"[2]; 10. mg/kg p.o., 6 Hrs., N=10",7
same,HEAD TWITCH (mice responding),"[2]; 10. mg/kg p.o., 24 Hrs., N=10",0
same,HIND LIMB PARALYSIS (mice responding),"[2]; 10. mg/kg p.o., 24 Hrs., N=10",0
same,HEAD TWITCH (mice responding),"[2]; 20. mg/kg p.o., 1 Hr., N=10",3
same,HIND LIMB PARALYSIS (mice responding),"[2]; 20. mg/kg p.o., 1 Hr., N=10",9
same,HEAD TWITCH (mice responding),"[2]; 20. mg/kg p.o., 2 Hrs., N=10",3
same,HIND LIMB PARALYSIS (mice responding),"[2]; 20. mg/kg p.o., 2 Hrs., N=10",10
same,HEAD TWITCH (mice responding),"[2]; 20. mg/kg p.o., 4 Hrs., N=20",17
same,HIND LIMB PARALYSIS (mice responding),"[2]; 20. mg/kg p.o., 4 Hrs., N=20",20
same,HEAD TWITCH (mice responding),"[2]; 20. mg/kg p.o., 6 Hrs., N=10",9
same,HIND LIMB PARALYSIS (mice responding),"[2]; 20. mg/kg p.o., 6 Hrs., N=10",10
same,HEAD TWITCH (mice responding),"[2]; 20. mg/kg p.o., 24 Hrs., N=10",0
same,HIND LIMB PARALYSIS (mice responding),"[2]; 20. mg/kg p.o., 24 Hrs., N=10",0
same,HEAD TWITCH (mice responding),"[2]; 40. mg/kg p.o., 1 Hr., N=10",5
same,HIND LIMB PARALYSIS (mice responding),"[2]; 40. mg/kg p.o., 1 Hr., N=10",10
same,HEAD TWITCH (mice responding),"[2]; 40. mg/kg p.o., 2 Hrs., N=10",5
same,HIND LIMB PARALYSIS (mice responding),"[2]; 40. mg/kg p.o., 2 Hrs., N=10",10
same,HEAD TWITCH (mice responding),"[2]; 40. mg/kg p.o., 4 Hrs., N=20",19
same,HIND LIMB PARALYSIS (mice responding),"[2]; 40. mg/kg p.o., 4 Hrs., N=20",20
same,HEAD TWITCH (mice responding),"[2]; 40. mg/kg p.o., 6 Hrs., N=10",9
same,HIND LIMB PARALYSIS (mice responding),"[2]; 40. mg/kg p.o., 6 Hrs., N=10",10
same,HEAD TWITCH (mice responding),"[2]; 40. mg/kg p.o., 24 Hrs., N=10",0
same,HIND LIMB PARALYSIS (mice responding),"[2]; 40. mg/kg p.o., 24 Hrs., N=10",0
same,HEAD TWITCH (mice responding),"[2]; 80. mg/kg p.o., 1 Hr., N=10",0
same,HIND LIMB PARALYSIS (mice responding),"[2]; 80. mg/kg p.o., 1 Hr., N=10",4
same,HEAD TWITCH (mice responding),"[2]; 80. mg/kg p.o., 2 Hrs., N=10",1
same,HIND LIMB PARALYSIS (mice responding),"[2]; 80. mg/kg p.o., 2 Hrs., N=10",4
same,HEAD TWITCH (mice responding),"[2]; 80. mg/kg p.o., 4 Hrs., N=10",3
same,HIND LIMB PARALYSIS (mice responding),"[2]; 80. mg/kg p.o., 4 Hrs., N=10",6
same,HEAD TWITCH (mice responding),"[2]; 80. mg/kg p.o., 6 Hrs., N=10",6
same,HIND LIMB PARALYSIS (mice responding),"[2]; 80. mg/kg p.o., 6 Hrs., N=10",10
same,HEAD TWITCH (mice responding),"[2]; 80. mg/kg p.o., 24 Hrs., N=10",0
same,HIND LIMB PARALYSIS (mice responding),"[2]; 80. mg/kg p.o., 24 Hrs., N=10",0
same,HEAD TWITCH (mice responding),"[2]; 160. mg/kg p.o., 1 Hr., N=10",0
same,HIND LIMB PARALYSIS (mice responding),"[2]; 160. mg/kg p.o., 1 Hr., N=10",1
same,HEAD TWITCH (mice responding),"[2]; 160. mg/kg p.o., 2 Hrs., N=10",0
same,HIND LIMB PARALYSIS (mice responding),"[2]; 160. mg/kg p.o., 2 Hrs., N=10",4
same,HEAD TWITCH (mice responding),"[2]; 160. mg/kg p.o., 4 Hrs., N=10",0
same,HIND LIMB PARALYSIS (mice responding),"[2]; 160. mg/kg p.o., 4 Hrs., N=10",2
same,HEAD TWITCH (mice responding),"[2]; 160. mg/kg p.o., 6 Hrs., N=10",0
same,HIND LIMB PARALYSIS (mice responding),"[2]; 160. mg/kg p.o., 6 Hrs., N=10",4
same,HEAD TWITCH (mice responding),"[2]; 160. mg/kg p.o., 24 Hrs., N=10",2
same,HIND LIMB PARALYSIS (mice responding),"[2]; 160. mg/kg p.o., 24 Hrs., N=10",2
same,ED50,"[2]; 1 Hr., read-out: ED50, HEAD TWITCH",40 mg/kg
same,ED50,"[2]; 1 Hr., read-out: ED50, HIND LIMB PARALYSIS",13 mg/kg
same,ED50,"[2]; 2 Hrs., read-out: ED50, HEAD TWITCH",40 mg/kg
same,ED50,"[2]; 2 Hrs., read-out: ED50, HIND LIMB PARALYSIS",< 10 mg/kg
same,ED50,"[2]; 4 Hrs., read-out: ED50, HEAD TWITCH",16.7 mg/kg
same,ED50,"[2]; 4 Hrs., read-out: ED50, HIND LIMB PARALYSIS",8.6 mg/kg
same,ED50,"[2]; 6 Hrs., read-out: ED50, HEAD TWITCH",15 mg/kg
same,ED50,"[2]; 6 Hrs., read-out: ED50, HIND LIMB PARALYSIS",< 10 mg/kg
same,ED50,"[2]; 24 Hrs., read-out: ED50, HEAD TWITCH",> 160 mg/kg
same,ED50,"[2]; 24 Hrs., read-out: ED50, HIND LIMB PARALYSIS",> 160 mg/kg
